# According to US4237141A, “Derivatives of α-methyl-β-aminopropiophenone and use thereof” (priority 1977, dated 1980):
# pEC50: −log10 of the molar value.
# Tested on: canine blood-perfused tracheal preparation
# Experiment: Canine blood-perfused tracheal preparation in situ: intraluminal pressure decrease and perfused-blood flow increase
# Assay type: in vivo
# Settings: based on reference D/C value 1 for isoproterenol
# Procedure: (§1) Reference will now be made to pharmacological effects of the compounds according to the present invention.
# The bronchodilator action was represented by a dose (C), μg, of a compound required for decreasing the intraluminal pressure by 20 cm H2 O and the vasodilator action was represented by a dose (D), μg, of the compound required for increasing the perfused-blood flow by 5 ml/min.
row,Structure (SMILES),D/C × 10: selectivity
1,"CCSc1ccc(C(=O)C(C)CN2CCCCC2)cc1 (stereo not drawn) [Compound 29, 1-(4-ethylthiophenyl)-3-piperidino-2-methylpropanone-1]",7
2,"CCCCS(=O)(=O)c1ccc(C(=O)C(C)CN2CCCCC2)cc1 (stereo not drawn) [Compound 36, 1-(4-butylsulfonylphenyl)-3-piperidino-2-methylpropanone-1]",3
3,"CSc1ccc(C(=O)C(C)CN2CCCCC2)cc1 (stereo not drawn) [Compound 51, 1-(4-methylthiophenyl)-3-piperidino-2-methylpropanone-1]",8
4,CC(C)(C)NCC(O)c1ccc(O)c(CO)c1 (stereo not drawn) [salbutamol],2
5,CC(C)(C)NCC(O)c1cc(O)cc(O)c1 (stereo not drawn) [terbutaline],4
6,COc1cc(CC2NCCc3cc(O)c(O)cc32)cc(OC)c1OC (stereo not drawn) [trimetoquinol],2.5

# Same assay, conditions: canine blood-perfused tracheal preparation in situ
Structure (SMILES),C: dose required for 20 cm H2O decrease in the tracheal intraluminal pressure (bronchodilator action),D: dose required for 5 ml/min increase in the perfused-blood flow (vasodilator action)
"CCSc1ccc(C(=O)C(C)CN2CCCCC2)cc1 (stereo not drawn) [Compound 29, 1-(4-ethylthiophenyl)-3-piperidino-2-methylpropanone-1]",109 µg,77 µg
"CCCCS(=O)(=O)c1ccc(C(=O)C(C)CN2CCCCC2)cc1 (stereo not drawn) [Compound 36, 1-(4-butylsulfonylphenyl)-3-piperidino-2-methylpropanone-1]",333 µg,100 µg
"CSc1ccc(C(=O)C(C)CN2CCCCC2)cc1 (stereo not drawn) [Compound 51, 1-(4-methylthiophenyl)-3-piperidino-2-methylpropanone-1]",62.5 µg,50 µg
"CC(C)NCC(O)c1ccc(O)c(O)c1 (stereo not drawn) [isoproterenol, reference compound]",0.1 µg,0.01 µg
CC(C)(C)NCC(O)c1ccc(O)c(CO)c1 (stereo not drawn) [salbutamol],2 µg,0.4 µg
CC(C)(C)NCC(O)c1cc(O)cc(O)c1 (stereo not drawn) [terbutaline],0.5 µg,0.2 µg
COc1cc(CC2NCCc3cc(O)c(O)cc32)cc(OC)c1OC (stereo not drawn) [trimetoquinol],0.2 µg,0.05 µg

# Tested on: not listed separately
# Experiment: Acute toxicity, intraperitoneal injection in mice
# Settings: mouse, in vivo, ip; intraperitoneal injection to mice; read-out: F: Approx. LD50 value
# Procedure: Another experiment was also conducted using mice as an index for the acute toxicity to the whole body.
# Approx. LD50 value on intraperitoneal injection for mice was determined.
row,Structure (SMILES),LD50
1,"CCSc1ccc(C(=O)C(C)CN2CCOCC2)cc1 (stereo not drawn) [Compound 25, 1-(4-ethylthiophenyl)-3-morpholino-2-methylpropanone-1]",200 mg/kg
2,CCSc1ccc(C(=O)C(C)CN2CCCC2)cc1 (stereo not drawn) [Compound 37],200 mg/kg
3,CCSc1ccc(C(=O)C(C)CN(C)C)cc1 (stereo not drawn) [Compound 54],200 mg/kg

# Tested on: guinea-pig isolated tracheal smooth muscles
# Experiment: Relaxant action on guinea-pig isolated tracheal chain contracted by histamine
# Settings: Cavia porcellus; contracted by 10^-4 M histamine; read-out: A: 50% effective amount for the guinea-pig isolated tracheal smooth muscles (50% relaxation)
# Description: as §1
# (§2) (1) Relaxant action on the guinea-pig isolated tracheal smooth muscles and the vasodilating action on the canine anesthetized femoral arterial preparation were employed to compare the pharmacological effects of each of the compounds.
row,Structure (SMILES),pEC50
1,"CCSc1ccc(C(=O)C(C)CN2CCOCC2)cc1 (stereo not drawn) [Compound 25, 1-(4-ethylthiophenyl)-3-morpholino-2-methylpropanone-1]",4.00
2,"CCSc1ccc(C(=O)C(C)CN2CCCCC2)cc1 (stereo not drawn) [Compound 29, 1-(4-ethylthiophenyl)-3-piperidino-2-methylpropanone-1]",5.70
3,"CCCCS(=O)(=O)c1ccc(C(=O)C(C)CN2CCCCC2)cc1 (stereo not drawn) [Compound 36, 1-(4-butylsulfonylphenyl)-3-piperidino-2-methylpropanone-1]",4.70
4,CCSc1ccc(C(=O)C(C)CN2CCCC2)cc1 (stereo not drawn) [Compound 37],4.52
5,"CSc1ccc(C(=O)C(C)CN2CCCCC2)cc1 (stereo not drawn) [Compound 51, 1-(4-methylthiophenyl)-3-piperidino-2-methylpropanone-1]",5.22
6,CCSc1ccc(C(=O)C(C)CN(C)C)cc1 (stereo not drawn) [Compound 54],4.22
7,"CC(C)NCC(O)c1ccc(O)c(O)c1 (stereo not drawn) [isoproterenol, reference compound]",8.30

# Same assay, conditions: based on reference B/A value 1 for isoproterenol; B from canine femoral artery
row,Structure (SMILES),B/A: selectivity to tracheal smooth muscles
1,"CCSc1ccc(C(=O)C(C)CN2CCOCC2)cc1 (stereo not drawn) [Compound 25, 1-(4-ethylthiophenyl)-3-morpholino-2-methylpropanone-1]",1
2,"CCSc1ccc(C(=O)C(C)CN2CCCCC2)cc1 (stereo not drawn) [Compound 29, 1-(4-ethylthiophenyl)-3-piperidino-2-methylpropanone-1]",90
3,"CCCCS(=O)(=O)c1ccc(C(=O)C(C)CN2CCCCC2)cc1 (stereo not drawn) [Compound 36, 1-(4-butylsulfonylphenyl)-3-piperidino-2-methylpropanone-1]",18
4,CCSc1ccc(C(=O)C(C)CN2CCCC2)cc1 (stereo not drawn) [Compound 37],6
5,"CSc1ccc(C(=O)C(C)CN2CCCCC2)cc1 (stereo not drawn) [Compound 51, 1-(4-methylthiophenyl)-3-piperidino-2-methylpropanone-1]",40
6,CCSc1ccc(C(=O)C(C)CN(C)C)cc1 (stereo not drawn) [Compound 54],6

# Tested on: β-adrenoceptor
# Experiment: Relaxant action on guinea-pig isolated trachea in the presence of propranolol (β-adrenoceptor involvement)
# Settings: histamine 10^-4 M; propranolol 2.5×10^-5 M; FIGS. 1-4
# Description: as §2
# Histamine (10^-4 M in the bath medium) was applied to the guinea-pig isolated tracheal preparation to contract the muscles, and the effect of the above compounds to inhibit the contraction (%) was plotted along the ordinate on each of the points for concentration which were connected by a solid line into a curve. Then, the dose-response curve for the compound in the presence of propranolol (2.5×10^-5 M) was obtained and plotted in a dotted line.
row,Structure (SMILES),difference between dose-response curves without and with propranolol (inhibition of histamine contraction)
1,"CCSc1ccc(C(=O)C(C)CN2CCCCC2)cc1 (stereo not drawn) [Compound 29, 1-(4-ethylthiophenyl)-3-piperidino-2-methylpropanone-1]",no substantial difference
2,"CSc1ccc(C(=O)C(C)CN2CCCCC2)cc1 (stereo not drawn) [Compound 51, 1-(4-methylthiophenyl)-3-piperidino-2-methylpropanone-1]",no substantial difference

# Tested on: canine femoral arterial preparation
# Experiment: Vasodilating action in the canine anesthetized femoral arterial preparation (close arterial injection)
# Assay type: in vivo
# Settings: not given
# Description: as §1, §2
row,Structure (SMILES),B: dose required for 30 ml/min increase in the perfused-blood flow (vasodilator action)
1,"CCSc1ccc(C(=O)C(C)CN2CCOCC2)cc1 (stereo not drawn) [Compound 25, 1-(4-ethylthiophenyl)-3-morpholino-2-methylpropanone-1]",100 µg
2,"CCSc1ccc(C(=O)C(C)CN2CCCCC2)cc1 (stereo not drawn) [Compound 29, 1-(4-ethylthiophenyl)-3-piperidino-2-methylpropanone-1]",180 µg
3,"CCCCS(=O)(=O)c1ccc(C(=O)C(C)CN2CCCCC2)cc1 (stereo not drawn) [Compound 36, 1-(4-butylsulfonylphenyl)-3-piperidino-2-methylpropanone-1]",360 µg
4,CCSc1ccc(C(=O)C(C)CN2CCCC2)cc1 (stereo not drawn) [Compound 37],175 µg
5,"CSc1ccc(C(=O)C(C)CN2CCCCC2)cc1 (stereo not drawn) [Compound 51, 1-(4-methylthiophenyl)-3-piperidino-2-methylpropanone-1]",240 µg
6,CCSc1ccc(C(=O)C(C)CN(C)C)cc1 (stereo not drawn) [Compound 54],350 µg
7,"CC(C)NCC(O)c1ccc(O)c(O)c1 (stereo not drawn) [isoproterenol, reference compound]",0.0053 µg
